Where a name gives a salt, the structure may show the parent alone.
How the values were obtained:
in vitro = assay: in vitro
From the text: Additionally, those molecular entities that are footnoted as “2” had permeability measurements obtained in an aqueous buffer and a buffer having 20 percent acetonitrile added thereto. For this example, a PAMPA Evolution instrument from pION INC of Woburn, Mass.
Solution pH was adjusted using a universal buffer as well as a buffer solution having a pH of 7.4 and containing a chemical scavenger to simulate serum proteins, which can be obtained from pION INC of Woburn, Mass. […] Donor and acceptor microtitre plates with 96 compartments were also employed for this example. The acceptor plate was obtained from Millipore Corporation of Billerica, Mass.
This approach for determining Pe is often referred to as the pKa^FLUX method.
As indicated above, the acceptor solutions contained a surfactant in order to mimic some of the function of serum proteins.
When not being stirred, a PAMPA sandwich was formed and permitted to incubate in the GUT-BOX at about 23° C. for up to several hours in an atmosphere saturated in humidity and scrubbed free of oxygen and carbon dioxide. Preferably, incubation was performed for up to about four hours. […] For example, the stirring members in FIG. 10 can be magnetized flippers that are controlled by a magnetic stirrer in the GUT-BOX, which causes the members to rotate about a horizontal axis. A speed dial for the magnetic stirrer, as described above, can be calibrated in units of thickness of the expected boundary layer rather than as standard units such as rpm.
After a permeation time in the GUT-BOX was reached, the PAMPA sandwich could then be separated and the donor and acceptor compartments studied for the amount of entity present. The amount of entity present was determined from UV measurements compared to UV spectra obtained from reference standards. The reference UV spectra were performed in a range from about 230 to 500 nanometers (nm). Moreover, mass balance was used to determine the amount of material retained by the porous support and DOUBLE-SINK GIT-0 lipid as generally described by Avdeef et al., Eur. J. Pharm.
The determination of Pe also accounted for the porous support area and its porosity. In particular, the support area of 0.3 centimeters squared (cm^2) was multiplied by the apparent porosity (εa) of the support, which was about 0.76, such as generally described by Nielsen et al., Eur. J. Pharm.
The majority of the data in Tables 1 through 5 is from unstirred assays and those stirred at about 186 rpm. […] The maximum speed used for these entities was 622 rpm.
Again, several entities were studied in a buffer comprising about 20 percent acetonitrile. These entities are footnoted as “1” in Tables 1 through 5. […] Tables 1 through 5 are provided below with Table 1 at 0 rpm, Table 2 stirred at 49 rpm, Table 3 stirred at 118 rpm, Table 4 stirred at 186 rpm and Table 5 stirred at 622 rpm. Tables 1 through 5 also include the standard deviation (SD) of determined Pu values.
The boundary layer thickness (h) in Tables 1 through 5 can be determined by […] of diffusion, which is
Pu values derived at various stirring speeds by using the pKa^FLUX method, as described above, were also subjected to a hydrodynamic analysis using the equation Pu=Kν^α in a logarithmic form. For example, FIG. 13 provides a plot of the logarithm of Pu versus the logarithm of ν comprising 36 measurements based on 14 molecular entities studied at several different stirring speeds. The intercept in such a plot is the logarithm of the stirring efficiency factor (K) with the slope being the hydrodynamic factor (α).

Caco-2 type cells = conditions: testosterone data at 22° C., Adson et al.; dashed line FIG. 15; cited from earlier work
[1] = testosterone at 37° C., Karlsson et al.; dotted curve FIG. 15; cited from earlier work
[2] = PAMPA, Pu (boundary layer permeability)
[3] = PAMPA, Pu (boundary layer permeability), 0 rpm (unstirred), aqueous buffer, pKa^FLUX method
[4] = 0 rpm (unstirred), aqueous buffer, pKa^FLUX method

SMILES	Papp at 50 µM (in vitro; [2])	further results
CC(C)(C)c1ccc(C(O)CCCN2CCC(C(O)(c3ccccc3)c3ccccc3)CC2)cc1 (stereo not shown) [Terfenadine, terfenadine]	2440 ×10⁻⁶ cm/s	
CCCC(=O)Nc1ccc(OCC(O)CNC(C)C)c(C(C)=O)c1 (stereo not shown) [Acebutolol, acebutolol]	63 ×10⁻⁶ cm/s	
CC(C)NCC(O)COc1cccc2ccccc12 (stereo not shown) [Propranolol, propranolol-HCl]		Papp at 50 µM (in vitro; [3]): 41 ×10⁻⁶ cm/s; Papp at 50 µM (in vitro; PAMPA, Pu (boundary layer permeability), stirred at 49 rpm, aqueous buffer): 369 ×10⁻⁶ cm/s; Papp at 50 µM (in vitro; PAMPA, Pu (boundary layer permeability), stirred at 118 rpm, aqueous buffer): 601 ×10⁻⁶ cm/s; Papp at 50 µM (in vitro; PAMPA, Pu (boundary layer permeability), stirred at 186 rpm, aqueous buffer): 951 ×10⁻⁶ cm/s; Papp at 50 µM (in vitro; PAMPA, Pu (boundary layer permeability), stirred at 622 rpm, aqueous buffer): 3110 ×10⁻⁶ cm/s
CC(C)Cc1ccc(C(C)C(=O)O)cc1 (stereo not shown) [Ibuprofen, ibuprofen]	40 ×10⁻⁶ cm/s	
O=C1C[C@@H](c2ccc(O)cc2)Oc2cc(O)cc(O)c21 [Naringenin, naringenin]	39 ×10⁻⁶ cm/s	
CNCCCC1c2ccccc2C=Cc2ccccc21 [Protriptyline, protriptyline-HCl]	2150 ×10⁻⁶ cm/s	
COc1cc2nc(N3CCN(C(=O)c4ccco4)CC3)nc(N)c2cc1OC [Prazosin, prazosin-HCl]	38 ×10⁻⁶ cm/s	
Cc1nccn1CC1CCc2c(c3ccccc3n2C)C1=O (stereo not shown) [Ondansetron, ondansetron]	59 ×10⁻⁶ cm/s	Pu (boundary layer permeability) (in vitro; PAMPA): 6949
O=C(O)Cc1cccc(O)c1 [3-hydroxyphenylacetic acid]	50 ×10⁻⁶ cm/s	
CN(C)C/C=C(/c1ccc(Br)cc1)c1cccnc1 [Zimelidine, zimelidine]	1670 ×10⁻⁶ cm/s	
CC(=O)CC(c1ccccc1)c1c(O)c2ccccc2oc1=O (stereo not shown) [Warfarin, warfarin]		Papp at 50 µM (in vitro; [3]): 70 ×10⁻⁶ cm/s
CCOC(=O)C1=C(COCCN)NC(C)=C(C(=O)OC)C1c1ccccc1Cl (stereo not shown) [Amlodipine, amlodipine-maleate]	1380 ×10⁻⁶ cm/s	
CCCN1CCN(c2cc3c(cc2F)c(=O)c(C(=O)O)cn3C2CC2)CC1C (stereo not shown) [4′N-Pr-3′-Me-ciprofloxacin]		Pu (boundary layer permeability) (in vitro; [4]): 40
C[C@@H](CO)NC(=O)[C@@H]1C=C2c3cccc4[nH]cc(c34)C[C@H]2N(C)C1 [Ergonovine, ergonovine]		Papp at 50 µM (in vitro; PAMPA): 25 ×10⁻⁶ cm/s
C[C@]12CC[C@H]3[C@@H](CCC4=CC(=O)CC[C@@]43C)[C@@H]1CC[C@@H]2O [testosterone]		Daq (Caco-2 type cells): 5e-06 cm/s; Daq [1]: 7.84e-06 cm/s
CCN1CCN(c2cc3c(cc2F)c(=O)c(C(=O)O)cn3C2CC2)CC1C (stereo not shown) [4′N-Et-3′-Me-ciprofloxacin]		Pu (boundary layer permeability) (in vitro; [4]): 53
CN1C(C(=O)Nc2ccccn2)=C(O)c2ccccc2S1(=O)=O [Piroxicam, piroxicam]	31 ×10⁻⁶ cm/s	
CCOC(=O)C1=C(CSCCN)NC(C)=C(C(=O)OC)C1c1cccc([N+](=O)[O-])c1 (stereo not shown) [Tiamdipine, tiamdipine]		Pu (boundary layer permeability) (in vitro; PAMPA): 951
CCCCN1CCN(c2cc3c(cc2F)c(=O)c(C(=O)O)cn3C2CC2)CC1C (stereo not shown) [4′N-Bu-3′-Me-ciprofloxacin]		Pu (boundary layer permeability) (in vitro; [4]): 23
Cc1c(OCC(F)(F)F)ccnc1C[S+]([O-])c1nc2ccccc2[nH]1 (stereo not shown) [Lansoprazole, lansoprazole]	35 ×10⁻⁶ cm/s	
COc1ccc(CCN2CCC(Nc3nc4ccccc4n3Cc3ccc(F)cc3)CC2)cc1 [Astemizole, astemizole]	746 ×10⁻⁶ cm/s	
O=C1NC(=O)C(c2ccccc2)(c2ccccc2)N1 [Phenytoin, phenytoin-Na]	26 ×10⁻⁶ cm/s	
O=C(O)c1ccccc1O [Salicylic acid, salicylic acid]	37 ×10⁻⁶ cm/s	
CCn1cc(C(=O)O)c(=O)c2ccc(C)nc21 [Nalidixic acid, nalidixic acid]	44 ×10⁻⁶ cm/s	
O=C(O)c1ccc2ccccc2c1 [2-naphthoic acid]	595 ×10⁻⁶ cm/s	
Clc1ccc(COC(Cn2ccnc2)c2ccc(Cl)cc2Cl)c(Cl)c1 (stereo not shown) [Miconazole, miconazole-nitrate]	1690 ×10⁻⁶ cm/s	Pu (boundary layer permeability) (in vitro; PAMPA, 50 µM): 1520
COC(=O)C1=C(C)NC(C)=C(C(=O)OCCN(C)Cc2ccccc2)C1c1cccc([N+](=O)[O-])c1 (stereo not shown) [Nicardipine, nicardipine]	1250 ×10⁻⁶ cm/s	
CCC(C)n1ncn(-c2ccc(N3CCN(c4ccc(OCC5COC(Cn6cncn6)(c6ccc(Cl)cc6Cl)O5)cc4)CC3)cc2)c1=O (stereo not shown) [Itraconazole, itraconazole]	1360 ×10⁻⁶ cm/s	Pu (boundary layer permeability) (in vitro; PAMPA, 50 µM): 2210
CNCCC=C1c2ccccc2CCc2ccccc21 [Nortriptyline, nortriptyline-HCl]	60 ×10⁻⁶ cm/s	

— patent US8840849B2, “Permeation device and method for reducing aqueous boundary layer thicknesses” (Pion, Inc., priority 2004, dated 2014)
